Source: US20240150322A1, “CDK9 Inhibitors” (Biolexis Therapeutics, Inc., priority 2022, published 2024)

Assays:
CDK9/CycT1 = target: T1, CDK9/CycT1 (Homo sapiens, UniProt P50750); assay: ADP-Glo kinase assay; assay type: biochemical
T1 construct: purchased SignalChem
Description: ADP-Glo assay kit was purchased from Promega and the CDK9/CycT1 protein and PDKtide substrate were purchased from SignalChem. […] The reaction was started by pre-incubating 4 μL of protein (20 nM), 2 μL of substrate (100 μM), and 2 μL of serial diluted drug in 1× assay buffer (50 mM HEPES, 3 mM MgCl2, 3 mM MnCl2, and 1 mM DTT) for 30 minutes. After pre-incubating, 4 μL of ATP (1 μM) was added to each well and incubated for an additional 90 minutes. The ADP-Glo Reagent (10 μL) and Kinase Detection Reagent (20 μL) were added to each well and incubated as recommended by Promega. The reaction was quantified by measuring luminescence and the IC50 was calculated using GraphPad Prism software.

[1] = test system: RWPE-1 Normal Prostate Cells; assay: CellTiter-Glo 2D cell viability assay in normal prostate cells; assay type: cell-based
Description: (§1) Multiplexing the LDH-Glo Cytotoxicity Assay and CellTiter-Glo 2D Cell Viability Assay. […] Change in toxicity was measured using the LDH-Glo Cytotoxicity Assay by combining 50 μL diluted samples with 50 μL LDH Detection Reagent and recording luminescence after 1 hour incubation. After samples were removed for LDH measurement, an equal volume of CellTiter Glo 2D Reagent was added to the remaining cell suspension and luminescence was recorded after 30-minute incubation period.

[2] = test system: RWPE-1 Normal Prostate Cells; assay: LDH-Glo cytotoxicity assay in normal prostate cells; assay type: cell-based; details: Homo sapiens, 72 hours
Description: as §1

22Rv1 = assay: 2D CellTiter-Glo cell viability assay; assay type: cell-based; details: Homo sapiens; 22Rv1, 72 hours
Description: (§2) CellTiter-Glo® 2.0 Luminescent cell viability assay reagent was purchased from Promega and 22Rv1 and LASCPC-01 cell lines were purchased from ATCC. […] An equal volume of CellTiter-Glo 2D Reagent was added to the cell suspensions and luminescence was recorded after 30-minute incubation period. […] FIG. 2 illustrates cellular antiproliferative efficacy of a benchmark CDK9 inhibitor AD-4573 on six prostate cancer cell lines over various concentrations.
(§3) CellTiter-Glo® 2.0 Luminescent cell viability assay reagent was purchased from Promega and 22Rv1, LASCPC-01, C4-2, C4-2B and NCI-H660, DU-145, PC-3 and LNCap cell lines were obtained from ATCC and a clinical core facility at Huntsman Cancer Institute. […] The results of cell viability were obtained and IC50 values were calculated (see Table 5, below) showing sub-micromolar cell killing of these prostate cancer cells.

DU-145 = assay: 2D CellTiter-Glo cell viability assay; assay type: cell-based; details: Homo sapiens; DU-145, 72 hours
Description: as §2, §3

LASCPC-01 = assay: 2D CellTiter-Glo cell viability assay; assay type: cell-based; details: 72 h, LASCPC-01, 72 hours
Description: as §2, §3

LNCap = assay: 2D CellTiter-Glo cell viability assay; assay type: cell-based; details: Homo sapiens, 72 hours
Description: as §2, §3

NCI-H660 = assay: 2D CellTiter-Glo cell viability assay; assay type: cell-based; details: NCI-H660, 72 hours
Description: as §2, §3

PC-3 = assay: 2D CellTiter-Glo cell viability assay; assay type: cell-based; details: Homo sapiens, PC-3, 72 h
Description: as §2, §3

C4-2 = assay: 2D CellTiter-Glo cell viability assay; assay type: cell-based, human; details: Homo sapiens, C4-2, 72 h
Description: as §3

C4-2B = assay: 2D CellTiter-Glo cell viability assay; assay type: cell-based; details: 72 h
Description: as §3

T1 sequence (P50750 whole entry): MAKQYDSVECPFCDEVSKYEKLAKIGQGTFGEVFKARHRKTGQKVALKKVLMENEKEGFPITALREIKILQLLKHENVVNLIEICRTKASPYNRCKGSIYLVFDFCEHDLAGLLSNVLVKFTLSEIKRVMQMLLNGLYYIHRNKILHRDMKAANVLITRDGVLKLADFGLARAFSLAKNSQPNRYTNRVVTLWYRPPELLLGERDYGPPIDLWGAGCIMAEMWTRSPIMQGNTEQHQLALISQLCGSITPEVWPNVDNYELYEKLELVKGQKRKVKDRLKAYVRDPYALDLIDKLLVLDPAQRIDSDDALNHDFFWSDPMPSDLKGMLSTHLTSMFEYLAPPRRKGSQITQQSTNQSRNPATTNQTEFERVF
T1 sequence (O60563 whole entry partner): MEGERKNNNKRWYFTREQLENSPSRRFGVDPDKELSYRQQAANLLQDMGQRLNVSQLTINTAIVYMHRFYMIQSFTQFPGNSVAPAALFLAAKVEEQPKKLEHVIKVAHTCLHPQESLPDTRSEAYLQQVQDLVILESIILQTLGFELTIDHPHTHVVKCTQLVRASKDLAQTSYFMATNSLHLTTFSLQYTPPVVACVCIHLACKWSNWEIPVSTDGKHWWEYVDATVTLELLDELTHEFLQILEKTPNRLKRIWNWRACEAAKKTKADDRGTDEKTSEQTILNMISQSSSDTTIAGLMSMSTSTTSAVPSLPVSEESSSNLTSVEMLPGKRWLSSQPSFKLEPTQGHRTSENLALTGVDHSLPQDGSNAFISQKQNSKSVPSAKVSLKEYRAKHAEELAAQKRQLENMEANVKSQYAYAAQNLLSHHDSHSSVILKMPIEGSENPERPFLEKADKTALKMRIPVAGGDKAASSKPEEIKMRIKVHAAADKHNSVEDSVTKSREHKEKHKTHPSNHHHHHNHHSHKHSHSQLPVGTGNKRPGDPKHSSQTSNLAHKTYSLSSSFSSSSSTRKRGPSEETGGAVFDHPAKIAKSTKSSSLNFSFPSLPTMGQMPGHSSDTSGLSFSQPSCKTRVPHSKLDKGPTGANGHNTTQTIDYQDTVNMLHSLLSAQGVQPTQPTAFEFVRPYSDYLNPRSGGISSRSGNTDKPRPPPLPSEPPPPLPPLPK

## CC(C)c1c2cc(-c3ccnc(N[C@H]4C[C@@H]5CCC4C5)n3)ccc2nn1C (stereo in doubt) [Compound I-13, N-((1R,2S,4R)-bicyclo[2.2.1]heptan-2-yl)-4-(3-isopropyl-2-methyl-2H-indazol-5-yl)pyrimidin-2-amine]
CDK9/CycT1
  IC50: < 50 nM

## CC(C)c1c2cc(-c3ccnc(N[C@H]4C[C@@H]5CCC4C5)n3)cnc2nn1C (stereo in doubt) [Compound I-14, N-((1R,2S,4R)-bicyclo[2.2.1]heptan-2-yl)-4-(3-isopropyl-2-methyl-2H-pyrazolo[3,4-b]pyridin-5-yl)pyrimidin-2-amine]
CDK9/CycT1
  IC50: < 50 nM

## CC(=O)N[C@@H]1CCC[C@H](C(=O)Nc2cc(-c3cnn4c3CC(C)(C)C4)c(Cl)cn2)C1 [AZD-4573, reference compound]
[1]; Homo sapiens, RWPE-1 normal prostate cells, 72 hours
  IC50: 8.4 nM
[1]; RWPE-1
  toxicity to normal prostate cells: highly toxic
[2]
  IC50: 151 nM
22Rv1
  IC50: 67.1 nM
DU-145
  IC50: 151 nM
LASCPC-01
  IC50: 13.5 nM
LNCap
  IC50: 1150 nM
NCI-H660
  IC50: 0.221 nM
PC-3
  IC50: 400 nM
C4-2
  IC50: 0.237 nM
C4-2B
  IC50: 0.398 nM

## CC(C)c1c2cc(-c3ccnc(N[C@@H]4CC[C@H](N)C4)n3)ccc2nn1C [Compound I-1, (1S,3R)-[3-[4-(3-isopropyl-2-methylindazol-5-yl)pyrimidin-2-yl]aminocyclopentan-1-yl]-1,3-diamine]
CDK9/CycT1
  IC50: < 50 nM

## CC(C)c1c2nc(-c3ccnc(N[C@H]4CC[C@H](N)C4)n3)ccc2nn1C [Compound I-3, (1S,3S)-[3-[4-[3-isopropyl-2-methylpyrazolo[4,3-b]pyridin-5-yl]pyrimidin-2-yl]aminocyclopentan-1-yl]-1,3-diamine]
CDK9/CycT1
  IC50: > 1000 nM

## CC(C)c1c2cc(-c3ccnc(N[C@H]4CC[C@H](N)C4)n3)cc(F)c2nn1C [Compound I-4, (1S,3S)-[3-[4-(7-fluoro-3-isopropyl-2-methylindazol-5-yl)pyrimidin-2-yl]aminocyclopentan-1-yl]-1,3-diamine]
CDK9/CycT1
  IC50: < 50 nM

## Cn1cc2cc(-c3ccnc(N[C@H]4CC[C@H](N)C4)n3)ccc2n1 [Compound I-6, (1S,3S)-N^1-(4-(2-methyl-2H-indazol-5-yl)pyrimidin-2-yl)cyclopentane-1,3-diamine]
CDK9/CycT1
  IC50: < 50 nM

## CC(C)c1[nH]nc2ccc(-c3ccnc(N[C@H]4CC[C@H](N)C4)n3)cc12 [Compound I-7, (1S,3S)-N^1-(4-(3-isopropyl-2H-indazol-5-yl)pyrimidin-2-yl)cyclopentane-1,3-diamine]
CDK9/CycT1
  IC50: < 50 nM

## Cc1[nH]nc2ccc(-c3ccnc(N[C@H]4CC[C@H](N)C4)n3)cc12 [Compound I-9, (1S,3S)-N^1-(4-(3-methyl-2H-indazol-5-yl)pyrimidin-2-yl)cyclopentane-1,3-diamine]
CDK9/CycT1
  IC50: 50 to 100 nM

## CC(C)c1c2cc(-c3ccnc(N[C@H]4CC[C@H](N)C4)n3)cnc2nn1C [Compound I-10, (1S,3S)-N^1-(4-(3-isopropyl-2-methyl-2H-pyrazolo[3,4-b]pyridin-5-yl)pyrimidin-2-yl)cyclopentane-1,3-diamine]
CDK9/CycT1
  IC50: < 50 nM

## CC(C)c1nn(C)c2ncc(-c3ccnc(N[C@H]4CC[C@H](N)C4)n3)cc12 [Compound I-11, (1S,3S)-N^1-(4-(3-isopropyl-1-methyl-1H-pyrazolo[3,4-b]pyridin-5-yl)pyrimidin-2-yl)cyclopentane-1,3-diamine]
CDK9/CycT1
  IC50: > 1000 nM
